Laboratory results: PMC5224920, “Assessing the mechanism and therapeutic potential of modulators of the human Mediator complex-associated protein kinases” (eLife, 2016)

Test system: 12 single or co-culture in vitro tissue models of primary cells
Test: Culture/co-culture cell model panel, extracellular biomarkers (DiscoveRx); on CCL2/MCP-1: reference of the scale not given here; on CXCL8/IL-8: reference of the scale not given here; on CXCL9/MIG: reference of the scale not given here; on IL-1alpha: reference of the scale not given here; on M-CSF: reference of the scale not given here; on PBMC Cytotoxicity: reference of the scale not given here; on SRB: reference of the scale not given here; on sTNF-alpha: reference of the scale not given here
Assay type: cell-based, human
Conditions: for B cell Proliferation / PBMC Cytotoxicity / Secreted IgG / sIL-2 / sIL-6 / sIL-17A / sIL-17F / sTNF-alpha: BT
[1] = HDF3CGF stimulated fibroblasts, 1.00E0 nM
[2] = HDF3CGF stimulated fibroblasts, 1.00E1 nM
[3] = HDF3CGF stimulated fibroblasts, 1.00E2 nM
[4] = HDF3CGF stimulated fibroblasts, 1.00E3 nM

For `Cn1ncc2cc(-c3cnc(N)c(Cl)c3N3CCC4(CCNC4=O)CC3)ccc21` [CMPD 3], the SRB (BENo, 1.00E3 nM) was 0.000914, the tPA (BENo, 1.00E3 nM) was -0.008 and the uPA (BENo, 1.00E3 nM) was 0.00377. It also gave a CCL26/Eotaxin-3 (BENo, 1.00E4 nM) of 0.042, a CD54/ICAM-1 (BENo, 1.00E4 nM) of 0.016 and a CD87/uPAR (BENo, 1.00E4 nM) of 0.038. For the same molecule, the CXCL8/IL-8 (BENo, 1.00E4 nM) was 0.023, the CXCL9/MIG (BENo, 1.00E4 nM) was 0.059 and the CXCL10/IP-10 (BENo, 1.00E4 nM) was 0.042. The CXCL11/I-TAC (BENo, 1.00E4 nM) was 0.073, the EGFR (BENo, 1.00E4 nM) was 0.00756 and the HLA-DR (BENo, 1.00E4 nM) was 0.014. For the same molecule, the IL-1alpha (BENo, 1.00E4 nM) was -0.053, the “Keratin 8/18” value (BENo, 1.00E4 nM) was 0.041 and the MMP-1 (BENo, 1.00E4 nM) was -0.026. The MMP-9 (BENo, 1.00E4 nM) was 0.010, the PAI-I (BENo, 1.00E4 nM) was -0.144 and the SRB (BENo, 1.00E4 nM) was -0.006. For the same molecule, the tPA (BENo, 1.00E4 nM) was 0.015, the uPA (BENo, 1.00E4 nM) was -0.00171 and the CCL2/MCP-1 (BF4T, 1.00E0 nM) was -0.034. The CCL26/Eotaxin-3 (BF4T, 1.00E0 nM) was -0.012, the CD54/ICAM-1 (BF4T, 1.00E0 nM) was 0.007 and the CD90 (BF4T, 1.00E0 nM) was -0.021. The CD106/VCAM-1 (BF4T, 1.00E0 nM) was 0.067, the CXCL8/IL-8 (BF4T, 1.00E0 nM) was 0.013 and the IL-1alpha (BF4T, 1.00E0 nM) was 0.00747. For the same molecule, the “Keratin 8/18” value (BF4T, 1.00E0 nM) was 0.00256, the MMP-1 (BF4T, 1.00E0 nM) was 0.013 and the MMP-3 (BF4T, 1.00E0 nM) was 0.056. For the same molecule, the MMP-9 (BF4T, 1.00E0 nM) was 0.030, the PAI-I (BF4T, 1.00E0 nM) was 0.049 and the SRB (BF4T, 1.00E0 nM) was 0.00349. For the same molecule, the tPA (BF4T, 1.00E0 nM) was 0.039, the uPA (BF4T, 1.00E0 nM) was 0.035 and the CCL2/MCP-1 (BF4T, 1.00E1 nM) was -0.011. For the same molecule, the CCL26/Eotaxin-3 (BF4T, 1.00E1 nM) was -0.071, the CD54/ICAM-1 (BF4T, 1.00E1 nM) was -0.035 and the CD90 (BF4T, 1.00E1 nM) was 0.005. The CD106/VCAM-1 (BF4T, 1.00E1 nM) was -0.00425, the CXCL8/IL-8 (BF4T, 1.00E1 nM) was 0.046 and the IL-1alpha (BF4T, 1.00E1 nM) was 0.008. For the same molecule, the “Keratin 8/18” value (BF4T, 1.00E1 nM) was 0.009, the MMP-1 (BF4T, 1.00E1 nM) was -0.00365 and the MMP-3 (BF4T, 1.00E1 nM) was 0.023. The MMP-9 (BF4T, 1.00E1 nM) was 0.007, the PAI-I (BF4T, 1.00E1 nM) was -0.00638 and the SRB (BF4T, 1.00E1 nM) was 0.000434. The tPA (BF4T, 1.00E1 nM) was 0.032, the uPA (BF4T, 1.00E1 nM) was -0.000167 and the CCL2/MCP-1 (BF4T, 1.00E2 nM) was -0.034. It also gave a CCL26/Eotaxin-3 (BF4T, 1.00E2 nM) of -0.085, a CD54/ICAM-1 (BF4T, 1.00E2 nM) of -0.034 and a CD90 (BF4T, 1.00E2 nM) of 0.00329. For the same molecule, the CD106/VCAM-1 (BF4T, 1.00E2 nM) was -0.010, the CXCL8/IL-8 (BF4T, 1.00E2 nM) was 0.040 and the IL-1alpha (BF4T, 1.00E2 nM) was -0.00155. For the same molecule, the “Keratin 8/18” value (BF4T, 1.00E2 nM) was 0.017, the MMP-1 (BF4T, 1.00E2 nM) was -0.009 and the MMP-3 (BF4T, 1.00E2 nM) was 0.032. It also gave an MMP-9 (BF4T, 1.00E2 nM) of -0.020, a PAI-I (BF4T, 1.00E2 nM) of -0.00143 and an SRB (BF4T, 1.00E2 nM) of 0.00276. The tPA (BF4T, 1.00E2 nM) was 0.041, the uPA (BF4T, 1.00E2 nM) was 0.017 and the CCL2/MCP-1 (BF4T, 1.00E3 nM) was -0.042. It also gave a CCL26/Eotaxin-3 (BF4T, 1.00E3 nM) of -0.098, a CD54/ICAM-1 (BF4T, 1.00E3 nM) of -0.035 and a CD90 (BF4T, 1.00E3 nM) of 0.00842. For the same molecule, the CD106/VCAM-1 (BF4T, 1.00E3 nM) was -0.023, the CXCL8/IL-8 (BF4T, 1.00E3 nM) was 0.030 and the IL-1alpha (BF4T, 1.00E3 nM) was -0.009. The “Keratin 8/18” value (BF4T, 1.00E3 nM) was 0.034, the MMP-1 (BF4T, 1.00E3 nM) was 0.000873 and the MMP-3 (BF4T, 1.00E3 nM) was 0.030. The MMP-9 (BF4T, 1.00E3 nM) was -0.009, the PAI-I (BF4T, 1.00E3 nM) was 0.022 and the SRB (BF4T, 1.00E3 nM) was 0.00179. The tPA (BF4T, 1.00E3 nM) was 0.045, the uPA (BF4T, 1.00E3 nM) was 0.019 and the CCL2/MCP-1 (BF4T, 1.00E4 nM) was -0.010. The CCL26/Eotaxin-3 (BF4T, 1.00E4 nM) was -0.092, the CD54/ICAM-1 (BF4T, 1.00E4 nM) was -0.042 and the CD90 (BF4T, 1.00E4 nM) was 0.017. It also gave a CD106/VCAM-1 (BF4T, 1.00E4 nM) of 0.005, a CXCL8/IL-8 (BF4T, 1.00E4 nM) of 0.022 and an IL-1alpha (BF4T, 1.00E4 nM) of -0.002. The “Keratin 8/18” value (BF4T, 1.00E4 nM) was 0.038, the MMP-1 (BF4T, 1.00E4 nM) was 0.00226 and the MMP-3 (BF4T, 1.00E4 nM) was 0.073. The MMP-9 (BF4T, 1.00E4 nM) was 0.010, the PAI-I (BF4T, 1.00E4 nM) was 0.013 and the SRB (BF4T, 1.00E4 nM) was 0.000467. The tPA (BF4T, 1.00E4 nM) was 0.028, the uPA (BF4T, 1.00E4 nM) was -0.035 and the “B cell Proliferation” value (1.00E0 nM) was 0.00438. For the same molecule, the “PBMC Cytotoxicity” value (1.00E0 nM) was 0.034, the “Secreted IgG” value (1.00E0 nM) was -0.074 and the sIL-2 (1.00E0 nM) was 0.110. For the same molecule, the sIL-6 (1.00E0 nM) was 0.008, the sIL-17A (1.00E0 nM) was 0.110 and the sIL-17F (1.00E0 nM) was -0.037. For the same molecule, the sTNF-alpha (1.00E0 nM) was 0.089, the “B cell Proliferation” value (1.00E1 nM) was -0.011 and the “PBMC Cytotoxicity” value (1.00E1 nM) was -0.016. The “Secreted IgG” value (1.00E1 nM) was 0.026, the sIL-2 (1.00E1 nM) was 0.017 and the sIL-6 (1.00E1 nM) was -0.016. It also gave a sIL-17A (1.00E1 nM) of 0.095, a sIL-17F (1.00E1 nM) of -0.399 and a sTNF-alpha (1.00E1 nM) of -0.021. The “B cell Proliferation” value (1.00E2 nM) was -0.056, the “PBMC Cytotoxicity” value (1.00E2 nM) was -0.027 and the “Secreted IgG” value (1.00E2 nM) was -0.165. The sIL-2 (1.00E2 nM) was 0.084, the sIL-6 (1.00E2 nM) was 0.046 and the sIL-17A (1.00E2 nM) was 0.184. The sIL-17F (1.00E2 nM) was -0.384, the sTNF-alpha (1.00E2 nM) was 0.022 and the “B cell Proliferation” value (1.00E3 nM) was -0.058. For the same molecule, the “PBMC Cytotoxicity” value (1.00E3 nM) was -0.050, the “Secreted IgG” value (1.00E3 nM) was -0.370 and the sIL-2 (1.00E3 nM) was -0.083. It also gave a sIL-6 (1.00E3 nM) of -0.147, a sIL-17A (1.00E3 nM) of 0.263 and a sIL-17F (1.00E3 nM) of -0.522. The sTNF-alpha (1.00E3 nM) was -0.114, the “B cell Proliferation” value (1.00E4 nM) was -0.233 and the “PBMC Cytotoxicity” value (1.00E4 nM) was -0.092. The “Secreted IgG” value (1.00E4 nM) was -0.611, the sIL-2 (1.00E4 nM) was -0.213 and the sIL-6 (1.00E4 nM) was -0.493. It also gave a sIL-17A (1.00E4 nM) of 0.164, a sIL-17F (1.00E4 nM) of -0.874 and a sTNF-alpha (1.00E4 nM) of -0.249. The CCL2/MCP-1 [1] was -0.000698, the CD54/ICAM-1 [1] was 0.022 and the CD106/VCAM-1 [1] was -0.007. For the same molecule, the CXCL8/IL-8 [1] was -0.00379, the CXCL9/MIG [1] was 0.00441 and the CXCL10/IP-10 [1] was 0.006. The CXCL11/I-TAC [1] was 0.016, the “Collagen I” value [1] was 0.078 and the “Collagen III” value [1] was 0.045. The EGFR [1] was 0.070, the M-CSF [1] was 0.015 and the MMP-1 [1] was 0.046. It also gave a PAI-I [1] of 0.072, a Proliferation_72hr [1] of -0.019 and an SRB [1] of -0.009. It also gave a TIMP-1 [1] of 0.031, a TIMP-2 [1] of 0.091 and a CCL2/MCP-1 [2] of -0.016. The CD54/ICAM-1 [2] was -0.00318, the CD106/VCAM-1 [2] was 0.013 and the CXCL8/IL-8 [2] was -0.026. It also gave a CXCL9/MIG [2] of -0.00175, a CXCL10/IP-10 [2] of 0.035 and a CXCL11/I-TAC [2] of -0.00346. For the same molecule, the “Collagen I” value [2] was 0.095, the “Collagen III” value [2] was 0.043 and the EGFR [2] was -0.010. For the same molecule, the M-CSF [2] was -0.053, the MMP-1 [2] was 0.052 and the PAI-I [2] was -0.000592. For the same molecule, the Proliferation_72hr [2] was -0.139, the SRB [2] was -0.015 and the TIMP-1 [2] was -0.019. For the same molecule, the TIMP-2 [2] was 0.138, the CCL2/MCP-1 [3] was -0.095 and the CD54/ICAM-1 [3] was -0.046. For the same molecule, the CD106/VCAM-1 [3] was 0.00848, the CXCL8/IL-8 [3] was -0.030 and the CXCL9/MIG [3] was -0.053. The CXCL10/IP-10 [3] was 0.038, the CXCL11/I-TAC [3] was -0.019 and the “Collagen I” value [3] was 0.072. For the same molecule, the “Collagen III” value [3] was 0.069, the EGFR [3] was -0.024 and the M-CSF [3] was -0.078. For the same molecule, the MMP-1 [3] was 0.030, the PAI-I [3] was -0.00555 and the Proliferation_72hr [3] was -0.249. It also gave an SRB [3] of -0.018, a TIMP-1 [3] of -0.057 and a TIMP-2 [3] of 0.140. The CCL2/MCP-1 [4] was -0.140, the CD54/ICAM-1 [4] was -0.051 and the CD106/VCAM-1 [4] was 0.034. The CXCL8/IL-8 [4] was -0.084, the CXCL9/MIG [4] was -0.075 and the CXCL10/IP-10 [4] was 0.033. For the same molecule, the CXCL11/I-TAC [4] was -0.016, the “Collagen I” value [4] was 0.079 and the “Collagen III” value [4] was 0.097.
